ChEMBL document CHEMBL1128255, “Synthesis of 11 beta-[18F]fluoro-5 alpha-dihydrotestosterone and 11 beta-[18F]fluoro-19-nor-5 alpha-dihydrotestosterone: preparation via halofluorination-reduction, receptor binding, and tissue distribution” (J Med Chem, 1995)

Assays:
[1] = target: T1, Androgen receptor (Rattus norvegicus) (UniProt P15207)
T1 sequence (whole entry): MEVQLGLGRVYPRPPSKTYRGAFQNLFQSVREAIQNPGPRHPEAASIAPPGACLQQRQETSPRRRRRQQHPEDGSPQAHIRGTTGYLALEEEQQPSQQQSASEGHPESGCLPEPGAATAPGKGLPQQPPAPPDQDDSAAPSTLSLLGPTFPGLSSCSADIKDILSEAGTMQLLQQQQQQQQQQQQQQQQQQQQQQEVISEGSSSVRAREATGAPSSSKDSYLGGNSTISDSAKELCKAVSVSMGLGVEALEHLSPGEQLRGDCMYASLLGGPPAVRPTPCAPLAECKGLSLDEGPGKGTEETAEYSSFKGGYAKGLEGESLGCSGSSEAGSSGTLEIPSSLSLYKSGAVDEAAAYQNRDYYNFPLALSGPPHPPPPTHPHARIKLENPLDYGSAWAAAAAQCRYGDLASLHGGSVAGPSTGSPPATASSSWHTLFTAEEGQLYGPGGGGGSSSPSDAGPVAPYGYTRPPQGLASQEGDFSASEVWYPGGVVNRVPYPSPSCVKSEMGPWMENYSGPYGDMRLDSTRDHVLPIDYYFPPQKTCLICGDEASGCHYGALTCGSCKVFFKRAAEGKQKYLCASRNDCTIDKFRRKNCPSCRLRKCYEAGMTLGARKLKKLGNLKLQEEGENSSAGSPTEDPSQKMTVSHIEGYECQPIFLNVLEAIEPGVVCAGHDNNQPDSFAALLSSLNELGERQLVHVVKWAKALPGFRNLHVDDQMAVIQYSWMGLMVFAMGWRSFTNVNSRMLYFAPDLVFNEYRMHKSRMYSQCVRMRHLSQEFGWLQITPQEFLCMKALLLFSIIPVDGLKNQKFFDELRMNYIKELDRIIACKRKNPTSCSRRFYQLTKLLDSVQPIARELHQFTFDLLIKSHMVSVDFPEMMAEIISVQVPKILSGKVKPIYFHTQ
Description: Binding selectivity index (BSI) as ratio of RBA for androgen receptor to non-specific binding of R1881

physchem = settings: octanol/water
Description: Partition coefficient (logP)

Row | Compound | BSI [1] | logP (physchem)
1 | C[C@]12CC[C@H]3[C@@H](CC[C@H]4CC(=O)CC[C@@H]43)[C@@H]1CC[C@@H]2O | 13.7 | 3.85
2 | C[C@]1(O)CC[C@H]2[C@@H]3CCC4=CC(=O)CCC4=C3C=C[C@@]21C [METRIBOLONE] | 100 | 3.29
3 | C[C@]12CC[C@H]3[C@@H](CCC4=CC(=O)CC[C@@H]43)[C@@H]1CC[C@@H]2O [NANDROLONE] |  | 3.17
4 | C[C@]12CC[C@H]3[C@@H](CCC4=CC(=O)CC[C@@]43C)[C@@H]1CC[C@@H]2O [TESTOSTERONE] |  | 3.45
